According to US20060160756A1, “Treatment and prevention of multi-drug resistance” (priority 2004, published 2006):
Like-named read-outs stand apart in the source and are kept apart here. Values belong to the molecule of their own block, whether it stands above or below them.

Key:
[1] = test system: K562/adriamycin-resistant cells; test: MTT assay: dofediquar effect on ADM cytotoxicity / growth of MDR cells; assay type: cell-based; settings: for Growth rate (% of control): 2nd incubation (24 hr) without MS-209, MS-209 3 μM where present
[2] = Pharmacokinetics of dofediquar after single oral administration to fasted healthy male volunteers; assay type: in vivo, healthy male Japanese adults; settings: for AUC / Cmax / Tmax / t½: mean ± S.D.
Experimental: The pharmacokinetic parameters of dofediquar (MS-209) are investigated in fasted healthy male Japanese adults. The study design is described in Table 2. The plasma concentrations of dofediquar after single oral administration of increasing doses from 100 to 1200 mg to fasted healthy male Japanese adults is illustrated in FIGS. 2 and 3.

[3] = Concentrations of dofediquar in plasma and tumor tissue after single oral administration in colon 26-bearing mice; assay type: in vivo; settings: for Concentration of MS-209, Plasma / Concentration of MS-209, Tumor: mean ± SD of N = 3
[4] = test system: drug-resistant cancer cell lines; test: In vitro studies using drug-resistant cancer cell lines (effective concentration); assay type: cell-based
Experimental: The effective concentration of dofediquar of about 3 μM (ca. 2 μg/mL) indicated in in vitro studies using drug-resistant cancer cell lines, is achieved at doses of 300 mg or higher.

[5] = 100 mg single oral dose, fasted
[6] = 300 mg single oral dose, fasted
[7] = 600 mg single oral dose, fasted
[8] = 900 mg single oral dose, fasted
[9] = 1200 mg single oral dose, fasted
[10] = single oral doses 100 to 1200 mg
[11] = 0.5 h after single oral 200 mg/kg
[12] = 1 h after single oral 200 mg/kg
[13] = 2 h after single oral 200 mg/kg
[14] = 5 h after single oral 200 mg/kg
[15] = 24 h after single oral 200 mg/kg

Structure (SMILES): COc1cccc2c1C(=O)c1c(O)c3c(c(O)c1C2=O)C[C@@](O)(C(=O)CO)C[C@@H]3O[C@H]1C[C@H](N)[C@H](O)[C@H](C)O1 [ADM, adriamycin]
Growth rate (% of control) ([1]; ADM 100 ng/ml, 1st incubation 1 hr): 93.4 % of control
Growth rate (% of control) ([1]; ADM 100 ng/ml, 1st incubation 3 hr): 102 % of control
Growth rate (% of control) ([1]; ADM 100 ng/ml, 1st incubation 6 hr): 92.0 % of control
Growth rate (% of control) ([1]; ADM 300 ng/ml, 1st incubation 1 hr): 88.1 % of control
Growth rate (% of control) ([1]; ADM 300 ng/ml, 1st incubation 6 hr): 100 % of control

AUC [2, 5]: 720 ± 210 ng·h/mL
Cmax [2, 5]: 470 ± 200 ng/mL
Tmax [2, 5]: 1.04 ± 0.40 h
t½ [2, 5]: 0.89 ± 0.37 h
AUC [2, 6]: 7290 ± 2540 ng·h/mL
Cmax [2, 6]: 2700 ± 740 ng/mL
Tmax [2, 6]: 1.04 ± 0.40 h
t½ [2, 6]: 1.17 ± 0.25 h
AUC [2, 7]: 32470 ± 5940 ng·h/mL
Cmax [2, 7]: 10110 ± 2140 ng/mL
Tmax [2, 7]: 0.75 ± 0.22 h
t½ [2, 7]: 2.25 ± 0.47 h
AUC [2, 8]: 62900 ± 9670 ng·h/mL
Cmax [2, 8]: 14030 ± 2480 ng/mL
Tmax [2, 8]: 1.67 ± 0.68 h
t½ [2, 8]: 2.39 ± 0.37 h
AUC [2, 9]: 105390 ± 20100 ng·h/mL
Cmax [2, 9]: 20990 ± 2150 ng/mL
Tmax [2, 9]: 1.00 ± 0.27 h
t½ [2, 9]: 3.10 ± 0.31 h
Detection in plasma ([2]; dose of 10 mg, single oral): not detected
Detection in plasma ([2]; dose of 30 mg, single oral): detected in one of 6 subjects
Manner of decline of plasma concentration after the peak ([2]; doses of 100 mg or higher, single oral): declines in a monophasic manner
Dose at which the effective concentration of about 3 μM (ca. 2 μg/mL) is achieved in plasma ([2]; single oral dose, fasted): ≥ 300 mg
Dose dependence of Tmax [2, 10]: does not change
Dose dependence of half-life [2, 10]: increases with increasing dose
Concentration of MS-209, Plasma [3, 11]: 25600 ± 9300 ng/mL
Concentration of MS-209, Tumor [3, 11]: 15.9 ± 8.1 µg/g
Concentration of MS-209, Plasma [3, 12]: 33000 ± 6300 ng/mL
Concentration of MS-209, Tumor [3, 12]: 30.6 ± 7.5 µg/g
Concentration of MS-209, Plasma [3, 13]: 27300 ± 7000 ng/mL
Concentration of MS-209, Tumor [3, 13]: 28.0 ± 9.4 µg/g
Concentration of MS-209, Plasma [3, 14]: 24600 ± 10000 ng/mL
Concentration of MS-209, Tumor [3, 14]: 25.8 ± 10 µg/g
Concentration of MS-209, Plasma [3, 15]: 610 ± 410 ng/mL
Concentration of MS-209, Tumor [3, 15]: 0.52 ± 0.49 µg/g
AUC, Plasma ([3]; single oral 200 mg/kg): 368000 ng·h/mL
AUC, Tumor ([3]; single oral 200 mg/kg): 376 µg·h/g
Structure (SMILES): O=C(C(c1ccccc1)c1ccccc1)N1CCN(CC(O)COc2cccc3ncccc23)CC1 (stereo not drawn) [dofediquar]
Cell growth inhibition with vs without dofediquar during the 2nd incubation ([1]; co-treated with adriamycin (100-300 ng/ml) and dofediquar (3 μM), then 2nd incubation (24 hr) with dofediquar alone): slightly more inhibited
Enhancement of ADM cytotoxicity ([1]; pretreated with 3 μM dofediquar for 24 hours, washed away, then ADM alone for 72 hours (FIG. 1)): does not show an enhancement of ADM cytotoxicity
Dose dependence of Cmax and AUC [2, 10]: increase more steeply than expected from the dose increase
Effective concentration [4]: about 3 μM
Effective concentration ([4]; same value as 3 μM): ca. 2 μg/mL
